{
  "source": "paper PMC9749896",
  "about": "(Bioorganic & medicinal chemistry letters, 2022)",
  "key": {"[1]": {"tested_on": "A431 (wt EGFR)", "conditions": "daily oral dosing at 50 mg/kg; cited from earlier work"}, "[2]": {"tested_on": "EGFR^L858R/T790M/C797S models", "conditions": "daily oral dosing at 50 mg/kg; cited from earlier work"}, "[3]": {"tested_on": "Ba/F3 EGFR^L858R/T790M/C797S cells", "assay": "cells", "conditions": "Mus musculus, BaF3, read-out: cell EC50, Ba/F3 EGFR L858R/T790M/C797S"}, "[4]": {"tested_on": "Ba/F3 EGFR^L858R/T790M cells", "assay": "cells", "conditions": "Mus musculus, BaF3, read-out: cell EC50, Ba/F3 EGFR L858R/T790M"}, "[5]": {"tested_on": "H1975 (EGFR^L858R/T790M)", "conditions": "daily oral dosing at 100 mg/kg; cited from earlier work"}, "[6]": {"tested_on": "Ba/F3 EGFR^L858R/T790M cells", "conditions": "cited from earlier work"}},
  "data": [
    {"compound": "CN1CCC(c2ccc(-c3ccc4c(c3)C(=O)N(C(C(=O)Nc3nccs3)c3cc(F)ccc3O)C4)cc2)CC1", "note": "(stereo not drawn) [Compound 4]", "values": [
      {"measurement": "efficacy in A431 (wt EGFR) model", "setting": "[1]", "result": "minimal effects"},
      {"measurement": "efficacy in triple mutant (EGFR L858R/T790M/C797S) models", "setting": "[2]", "result": "tumor regression"}
    ]},
    {"compound": "CN1CCC(c2ccc(-c3ccc4ncn(C(C(=O)Nc5nccs5)c5ccccc5)c(=O)c4c3)cc2)CC1", "note": "(stereo not drawn) [Compound 23]", "values": [
      {"measurement": "EC50", "setting": "[3]", "result": 0.05, "unit": "µM"},
      {"measurement": "EC50", "setting": "[4]", "result": 0.72, "unit": "µM"}
    ]},
    {"compound": "O=C(Nc1nccs1)C(c1cc(F)ccc1O)N1Cc2ccc(-c3ccc(N4CCNCC4)cc3)cc2C1=O", "note": "(stereo not drawn) [Compound 2]", "values": [
      {"measurement": "H1975 model efficacy", "setting": "[5]", "result": "efficacy was observed"},
      {"measurement": "single-agent activity in Ba/F3 EGFR L858R/T790M antiproliferative assay", "setting": "[6]", "result": "good single-agent activity"}
    ]}
  ]
}
